Legend:
[1] = system: canola ALS mutant in CHI bacterial cells; assay: bacterial spot test, serially-diluted cells on herbicide plates; format: cell-based; settings: positive control canola ALS mutant
Experimental: (§1) Mutations were generated by site-directed mutagenesis (SDM) of the wild-type Cassava AHAS gene 1 and transformed into CHI bacterial cells lacking the endogenous AHAS homolog. Serially-diluted cells were plated onto plates with increasing concentrations of either imazamox (IM) or flumetsulam (TP). Cassava AHAS wt and a canola ALS mutant known to be highly herbicide tolerant were used as negative and positive controls, respectively. Representative set of bacterial spot tests showing the positive and negative controls, some other mutants tested and the W574S mutant. The herbicide concentrations listed on the left-most column correspond to the entire row and columns separate different lines. Each spot test consists of four 1:10 serial dilutions (10-3, 10-4, 10-5 and 10-6) after normalization based on the OD600 of each M9 liquid culture.
as §1, with “D376A” for “W574S”

[2] = system: cassava AHAS W574L mutant in CHI bacterial cells; assay: as above; format: cell-based, Cassava (Manihot esculenta); settings: growth is inconsistent
Experimental: as §1, with “D376A” for “W574S”

[3] = system: cassava AHAS D376A mutant in CHI bacterial cells; assay: as above; format: cell-based, Cassava (Manihot esculenta)
Experimental: as §1, with “D376A” for “W574S”

[4] = system: cassava AHAS W574L mutant in CHI bacterial cells; assay: kill curve assay, colonies counted on herbicide plates; format: cell-based, Cassava (Manihot esculenta); settings: growth is inconsistent
Experimental: (§2) Mutants were also tested using a “kill curve” assay where equal numbers of cells containing the mutant of interest were plated onto plates with increasing concentrations of herbicide and the number of resulting colonies counted. Kill curve results averaged between three experiments, each with an average of three technical replicates. Error bars are ±one standard deviation of the averaged data. Results are depicted in FIG. 6.
(§3) Mutants were also tested using a “kill curve” assay where equal numbers of cells containing the mutant of interest were plated onto plates with increasing concentrations of herbicide and the number of resulting colonies counted. Kill curve results averaged between three experiments, each with an average of three technical replicates. Error bars are ±one standard deviation of the averaged data. Results are depicted in FIG. 8.

[5] = system: cassava AHAS W574S mutant in CHI bacterial cells; assay: bacterial spot test, serially-diluted cells on herbicide plates; format: cell-based, Cassava (Manihot esculenta); settings: similar to the canola positive control
Experimental: as §1

[6] = system: cassava AHAS D376A mutant in CHI bacterial cells; assay: kill curve assay, colonies counted on herbicide plates; format: cell-based, Cassava (Manihot esculenta)
Experimental: as §3

[7] = system: wt cassava AHAS gene in CHI bacterial cells lacking the endogenous AHAS homolog; assay: bacterial spot test, serially-diluted cells on herbicide plates; format: cell-based, Cassava (Manihot esculenta); settings: negative control wt cassava AHAS gene
Experimental: as §1
Mutations were generated by site-directed mutagenesis (SDM) of the wild-type Cassava AHAS gene 1 and transformed into CHI bacterial cells lacking the endogenous AHAS homolog. Serially-diluted cells were plated onto plates with increasing concentrations of either imazamox (IM) or flumetsulam (TP). Cassava AHAS wt and a canola ALS mutant known to be highly herbicide tolerant were used as negative and positive controls, respectively. […]

[8] = system: cassava AHAS W574S mutant in CHI bacterial cells; assay: kill curve assay, colonies counted on herbicide plates; format: cell-based, Cassava (Manihot esculenta)
Experimental: as §2

SMILES	growth of cells on plates containing herbicide [1]	herbicide concentration at which all growth ceased [1] [mM]	tolerance to herbicide [2]	tolerance to herbicide [3]	tolerance to herbicide [4]	growth of cells on plates containing herbicide [5]	tolerance to herbicide [6]	growth of cells on plates containing herbicide [7]	tolerance to herbicide [8]
COCc1cnc(C2=NC(C)(C(C)C)C(=O)N2)c(C(=O)O)c1 (stereo not drawn) [IM, imazamox]	grew on all concentrations	5	robust tolerance	robust tolerance	robust tolerance	robust growth	robust tolerance	failed to grow	
Cc1ccn2nc(S(=O)(=O)Nc3c(F)cccc3F)nc2n1 [TP, flumetsulam]	grew on all concentrations	5	robust tolerance		robust tolerance	robust growth		failed to grow	enhanced tolerance
